According to patent US10947207B2, “GP130 modulators” (THE REGENTS OF THE UNIVERSITY OF CALIFORNIA, priority 2016, dated 2021):
“And” between values parts separate entries of the source, which are not always exact repeats. Identical values can stand only once. “Also recorded” adds a separate entry of the source. Like-named read-outs stand apart in the source and are kept apart here.

Key:
[1] = test system: NMDA-treated primary hippocampal neurons; assay: NMDA-triggered LDH release in primary hippocampal neuron culture; conditions: for effect on NMDA-triggered LDH release (in words): 10 μM, 16 h pretreatment, NMDA 100 μM, 2.5 h, compared with NMDA alone; for effect of SC144 on the protection by compounds 2 or 8 against NMDA-evoked excitotoxicity (LDH): SC144 pretreatment/co-treatment with compound 2 or 8
Description: In this study, the cytotoxicity of NMDA was quantified by measuring the activity of lactate dehydrogenase (LDH) released from the cultured neurons into the medium and confirmed by living cell density analysis using calcein staining. […] MK-801, a noncompetitive antagonist of NMDA receptor, was used as a control [Wong et al., 1986, Proc. Natl. Acad. Sci. U.S.A., 83(18):7104].
(§1) In the present study, primary cultures of hippocampal neurons from E15-16 mouse embryos (C57BL/6) were used. The culture was made according to a previously described protocol with minor modifications [Bilousova et al. 2006, J. Neurochem. 97(1):44]. Hippocampi were isolated in ice-cold D-Hanks buffer containing (in mM: NaCl 136.7, KCl 5.4, NaHCO3 4.2, KH2PO4 0.4, NaH2PO4 0.6, glucose 5.6, and pH 7.4). In order to achieve a single cell suspension, hippocampal tissues were treated with papain (0.5 μg/mL) and Dnase (0.6 μg/mL) for 20 min at 37° C., followed by mechanical dissociation in complete media (Neurobasal medium supplemented with B27 (Invitrogen), 25 μM glutamate, and 1% penicillin-streptomycin). The cells were plated on poly-DL-ornithine (0.5 mg/mL), and laminin (5 μg/mL) pre-coated 96-well plates (Costar) at density 1×10^5 cells/mL and maintained in a humidified 5% CO2 incubator at 37° C. The proliferations of non-neuronal cells were limited by 48 h treatment with cytosine arabinoside (10 μM) started on first day in vitro (DIV1). All experiments were performed at 9 DIV cells.
Hippocampal neurons isolated from embryos were cultured for 8 days before treatment with chemical modulators (compounds). […] Briefly, the cells were washed three times with prewarmed Locke's buffer containing (in mM: NaCl 154, KCl 5.6, NaHCO3 3.6, CaCl2 2.3, MgCl2 1.2, glucose 5.6, HEPES 5, and pH 7.4) to remove traces of growth medium. […] The incubation was terminated by removal of compound-containing buffer, followed by washing with prewarmed drug-free Locke's buffer containing 1 mM Mg^2+.
Assessment of cell damage was done by measuring the LDH activity in the culture medium. The experiment was performed per the manufacturer's protocol (Promega). Release LDH levels were expressed as a percentage compared with that of the DMSO control group (100%).

[2] = test system: human chondrocytes; conditions: cited from earlier work
[3] = test system: NMDA-treated hippocampal neurons; assay: Calcein staining, density of living neurons under NMDA-induced excitotoxicity; assay type: cell-based, mouse; conditions: 10 μM pretreatment, NMDA 100 μM, 2.5 h
Description: Calcein staining was employed to evaluate the density of living neurons. A highly lipophilic non-fluorescent and cell permeable compound, calcein-acetoxymethyl ester (calcein-AM) was used for staining. Calcein-AM can be converted by intracellular esterases into calcein, an anionic fluorescent form, only labeling viable cells, and thus provides both morphological and functional information about undamaged cells.
as §1
Hippocampal neurons isolated from embryos were cultured for 8 days before treatment with chemical modulators (compounds). […]
A highly lipophilic non-fluorescent and cell permeable compound, calcein-acetoxymethyl ester (calcein-AM) was used to determine cell viability. […] Fluorescent images of live cells were collected using Lionheart FX automated digital microscope equipped with 4× objective and GFP filter cube (469/525); data was processed and analyzed using Gen5 software v. […]

[4] = test system: pTyr-STAT3 in SH-SY5Y cells; assay: pSTAT3 AlphaLISA in SH-SY5Y cells; assay type: cell-based, human; conditions: 30 minutes, 1 μM
Protocol: Accordingly, the human neuroblastoma cell line SH-SY5Y was used, known to express the IL-6 receptor, […] to determine JAK-STAT activation as reflected by increases in pSTAT3. In the studies set forth in FIG. 2, cells were treated for 30 minutes with potential agonists PA1, PA2, and PA3; and then lysates were analyzed using the Sure-Fire Perkin-Elmer AlphaLISA for pTyr-STAT3.

[5] = Pharmacokinetic study, brain and plasma levels in mice; assay type: in vivo, mouse; conditions: for Cmax: mouse, brain
Protocol: Since any potential therapeutic for AD needs to cross the blood-brain barrier (BBB), we further evaluated the brain permeability of Gp130 compound 2 in mice. Mice were dosed orally at 10 or 30 mg/kg, or injected subcutaneously (SQ) at 10 mg/kg, and euthanized after 1, 2, 4, 6, and 8 hours post-dose. […] The brain to plasma ratio for compound 2 was ˜4:1 for oral 30 mg/kg; and […] for 10 mg/kg SQ injection. Based on the oral brain levels of compound 2 we will conduct proof-of-concept testing in a mouse model of NMDA-induced toxicity in future studies.
The brain penetrance and plasma levels of compound 2 were assessed in a pharmacokinetic (PK) study comprising oral dosing (30 mg/kg and 10 mg/kg) and subcutaneous (sub-Q, 10 mkd) injection. For each route and dose, 5 adult wildtype mice received either 5 μL of a 50 mg/ml stock in 100% DMSO mixed 50:50 with flavoring to give 10 μL total for 10 mg/kg oral; or 10 μL of a 75 mg/ml stock in 100% DMSO mixed 50:50 with flavoring to give 20 μL final for 30 mg/kg oral; or were injected with 50 μL of a 5 mg/ml stock in 100% DMSO for sub-Q 10 mg/kg, Mice were euthanized by ketamine/xylazine over-anesthesia at 1, 2, 4, 6, and 8 h post-dosing, and blood collected by cardiac puncture. The mice were then perfused with saline and brain tissue dissected and snap frozen on dry ice. Blood was centrifuged at 3000 rpm for 10 min and the plasma supernatant was collected. Both plasma and the right hemi-brain were sent to Integrated Analytical Solutions (IAS, Berkeley, Calif.) with a reference sample of compound for compound level analysis in tissue and plasma. The compound levels were determined using a LC-MS/MS approach.

## Brc1ccc(Nc2nc(-c3cccnc3)cs2)cc1 [Compound 4, N-(4-bromophenyl)-4-(pyridin-3-yl)thiazol-2-amine]
[1]
  effect on NMDA-triggered LDH release (in words): greatest decrease

## HNG: potent HN analog, HN with a substitution of serine 14 to glycine (MAPRGFSCLLLLTGEIDLPVKRRA; UniProt Q8IVG9 1-24, looked up, variant S14G)
[1]
  effect on NMDA-triggered LDH release (in words): significance

## Brc1ccc(Nc2nc(-c3ccccc3)cs2)cc1 [compound 1 (PA1)]
[2]; Shkhyan et al. submitted manuscript
  Gp130 agonism: Gp130 agonist

## Fc1ccc(Nc2nc(-c3ccc(F)cc3)cs2)cc1 [Compound 8, N,4-bis(4-fluorophenyl)thiazol-2-amine]
[1]
  effect on NMDA-triggered LDH release (in words): rescued LDH; also recorded: greatest decrease

## Fc1ccc(Nc2nc(-c3ccccc3)cs2)cc1 [Compound 2, N-(4-fluorophenyl)-4-phenylthiazol-2-amine]
[1]
  effect on NMDA-triggered LDH release (in words): greatest decrease
[1]; listed as compound 2
  effect on NMDA-triggered LDH release (in words): rescued the LDH increase
[3]
  density of living neurons (calcein staining): significance
[3]; listed as compound 2
  density of living neurons (calcein staining): no difference in density of living neurons
[4]
  pSTAT3 levels over DMSO control: increased pSTAT3
[5]
  oral brain permeability (in words): good oral brain permeability
[5]; dose of 30 mg/kg
  oral bioavailability (in words): orally bioavailable
[5]; po, 10 mg/kg, oral 10 mg/kg, at 1 h, read-out: Cmax for brain
  Cmax: ~18 ng/g
[5]; po, 30 mg/kg, oral 30 mg/kg, at 1 h post dose, read-out: Cmax for brain
  Cmax: ~570 nM and 156 ng/g
[5]; po, 30 mg/kg, oral 30 mg/kg, read-out: Cmax
  Cmax: 570 nM
[5]; subcutaneous, 10 mg/kg, SQ 10 mg/kg, at 2 h, read-out: Cmax for brain
  Cmax: 161 ng/g

## Fc1ccc(Nc2nc(-c3ccccc3)cs2)c(F)c1 [Compound 5, N-(2,4-difluorophenyl)-4-phenylthiazol-2-amine]
[1]
  effect on NMDA-triggered LDH release (in words): greatest decrease

## HN: 24-amino acid bioactive peptide encoded in the mitochondrial genome by the gene MT-RNR2
[1]
  effect on NMDA-triggered LDH release (in words): non-significance; also recorded: only one of them was active
[1]; no NMDA
  effect on neurons which were not treated with NMDA: Neither HN itself nor the compounds had effect

## Brc1ccc(Nc2nc(-c3ccccc3)cs2)cc1 [Compound 1, N-(4-bromophenyl)-4-phenylthiazol-2-amine]
[2]
  apoptosis of human chondrocytes: reduce apoptosis of human chondrocytes
  pSTAT3: increase pSTAT3

## C[C@]12N[C@H](Cc3ccccc31)c1ccccc12 [MK801, reference compound]
[1]
  effect on NMDA-triggered LDH release (in words): rescued the LDH increase
[3]
  density of living neurons (calcein staining): significance

## O=C(NNc1nc2cc(F)ccc2n2cccc12)c1cnccn1 [SC144]
[1]
  effect of SC144 on the protection by compounds 2 or 8 against NMDA-evoked excitotoxicity (LDH): prevented compound 2 rescue; also recorded: prevented this rescue
[1]; listed as SC-144
  effect of SC144 on the protection by compounds 2 or 8 against NMDA-evoked excitotoxicity (LDH): abated the protection
